Measurements from publication PMC3078936 (PLoS ONE, 2011).

Molecular target: T1, DYNLL1 (Homo sapiens, UniProt P63167)
T1 construct: 6xHis (N); made in house; host or cells: E. coli BL21(DE3)Star
Experiment: Isothermal titration calorimetry of peptide/protein binding to DYNLL1
Details: PBS + 3 mM 2-mercaptoethanol pH 7.4, 299 K; for ΔH: ITC binding enthalpy; for -TΔS: ITC entropy term; for Kd: ITC, 15 µM DYNLL1 in the cell, A + B to AB model, dimeric peptides reach the dynamic range limit of ITC
Description: Binding parameters of the in vitro evolved Ac-[…] and naturally evolved Ac-DKSTQTD consensus peptides were determined by isothermal titration calorimetry (ITC). Synthetic peptides were used and N-terminal acetylation was applied to better mimic a non-terminal peptide motif by avoiding the positively charged N-terminus. In order to elucidate the particular contribution of Val-5 to the binding affinity, several control peptides were produced. The in vitro evolved Val-5 was replaced with a glycine (Gly-5) to assess side chain function. In a further truncated variant the entire amino acid residue was replaced with an acetate group (Ac-5) to assess the function of the amide group at position −5. The same variations of Val-5, Gly-5 or Ac-5 were also introduced in the framework of the naturally evolved consensus peptide. DYNNL1 binding of all six variants was analyzed by ITC. In all measurements the stoichiometry of binding was 1∶1 (2 peptides binding to one homodimer DYNNL1). The binding was enthalpy-driven and was accompanied with unfavorable entropy change. Ac-5 versions of both the natural and the in vitro evolved consensus peptide had binding affinities in the micromolar range. Replacing the acetyl group with Gly-5 led to a tenfold affinity increase with both peptides.
All peptides and DYNLL1 were dialyzed overnight in PBS buffer supplemented with 3 mM 2-mercaptoethanol (pH 7.4). A typical binding experiment involved 15 µM DYNLL1 in the cell and 30–40 injections varying between of 3–5 µl peptide solution. For each experiment the thermodynamic parameters were determined at 299 K. We used a VP-ITC instrument from Microcal and the data were fitted by the software package Origin 5.0 (OriginLab) using the simple A + B to AB binding model. The signal from an initial 2 µl injection was eliminated. The equilibration time between injections was 900 sec.

T1 sequence (P63167 whole entry): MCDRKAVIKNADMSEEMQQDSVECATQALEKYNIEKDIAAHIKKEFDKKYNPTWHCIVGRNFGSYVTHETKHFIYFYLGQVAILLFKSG

Substance | ΔH | -TΔS | Kd
dimeric-GSVSRGTQTE [recombinant GCN4 leucine zipper-fused, dimerized in vitro evolved consensus peptide] | -15.5 kcal/mol | <4.21 kcal/mol | < 7 nM
dimeric-GSGDKSTQTD [recombinant GCN4 leucine zipper-fused, dimerized Gly-5 natural consensus peptide] | -18.2 kcal/mol | <7.03 kcal/mol | < 7 nM
dimeric-GSVDKSTQTD [recombinant GCN4 leucine zipper-fused, dimerized Val-5 natural consensus peptide] | -21 kcal/mol | <10 kcal/mol | < 9 nM
dimeric-GSGSRGTQTE [recombinant GCN4 leucine zipper-fused, dimerized Gly-5 in vitro evolved peptide] | -16.6 kcal/mol | <4.92 kcal/mol | < 3 nM
